# Experimental data from paper PMC11845477, “Exploring the principles behind antibiotics with limited resistance” (Nature Communications, 2025).
# Legend:
# [1] = tested on: K. pneumoniae ATCC 10031 (SEN) and K. pneumoniae ATCC 700603 (MDR); assay: microbe, parasite or virus in culture; type: cell-based, Klebsiella pneumoniae; details: for MIC: Klebsiella pneumoniae, across three biological replicates
# Method: (§1) This study focused on multiple bacterial strains, as follows. For the FoR and ALE experiments, 2 strains per species were chosen: E. coli ATCC 25922, K. pneumoniae ATCC 10031, A. baumannii ATCC 17978, and P. aeruginosa ATCC BAA-3107 as sensitive (SEN) strains, and E. coli NCTC13846, K. pneumoniae ATCC 700603, A. baumannii ATCC BAA-1605 and P. aeruginosa LESB58 as multi-drug resistant (MDR) strains. Functional metagenomic screens were performed with E. coli ATCC 25922 and K. pneumoniae ATCC 10031 strains. To determine the dose-kill properties of the different antibiotics, an E. coli strain (ATCC 25922) expressing a yellow fluorescent protein (pZS2R, YFP, CHL^R) and a red fluorescent protein (pZS2R, mCherry, CHL^R) was used.
# (§2) Unless otherwise indicated, cation-adjusted Mueller-Hinton Broth 2 (MHB, Millipore) medium was used throughout the study, except for SCH79797 (SCH).
# (§3) A robotic liquid handling system was used to automatically prepare a 11 to 16-step serial dilution in 384-well microtiter plates (Greiner). A final concentration of 5 × 10^5 bacterial cells per mL were inoculated into each well containing 60 µL MHB medium. Bacterial cultures were incubated at 37 °C with continuous shaking (Infors shaker, 900 rpm with 3 mm throw) for 18 hours (2 replicates from each). Cell growth was monitored by measuring the optical density (OD600 values, using Biotek Synergy microplate reader). MIC was defined as the antibiotic concentration of complete growth inhibition (i.e., OD600 < 0.05). Relative MIC was calculated as follows:1 relativeMIC=MICevolved/MICancestor
# [2] = tested on: P. aeruginosa ATCC BAA-3107 (SEN) and P. aeruginosa LESB58 (MDR); assay: microbe, parasite or virus in culture; type: cell-based, Pseudomonas aeruginosa; details: for MIC: Pseudomonas aeruginosa, across three biological replicates
# Method: as §1, §2, §3
# [3] = tested on: K. pneumoniae ATCC 10031 (SEN) and K. pneumoniae ATCC 700603 (MDR); assay: Adaptive laboratory evolution (ALE), relative MIC of evolved lines; type: cell-based, Klebsiella pneumoniae
# Source text: Using the same set of bacterial strains, we initiated adaptive laboratory evolution with the aim to maximize the level of antibiotic resistance in the populations achieved during a longer, but fixed time period.
# An established protocol for adaptive laboratory evolution[46],[73] was followed to propagate populations with the highest resistance levels. Starting with an antibiotic concentration that caused approximately 50% growth inhibition, ten parallel populations for each antibiotic-ancestor strain combination were grown for 72 hours at 37 °C with continuous shaking (300 RPM). MHB broth medium was used unless stated otherwise. After each incubation, 20 µl of each culture was transferred to four new wells containing fresh medium with increasing antibiotic concentrations (0.5×, 1×, 1.5×, and 2.5× the previous concentration) in a chessboard layout to monitor potential cross-contamination. Growth was monitored by measuring OD600 using a Biotek Synergy 2 microplate reader, and only populations grown in the highest drug concentration with an OD600 > 0.2 were transferred further.
# as §3, with “relativeMIC=MICevolved/MICancestor […]” for “relativeMIC=MICevolved/MICancestor”
# Supplementary Figure 4. Resistance levels following adaptive laboratory evolution across bacterial strains. The level of resistance was measured as the fold change in relative MIC between evolved and ancestral strains after ~60 days of adaptive laboratory evolution. Data are grouped by bacterial strain (A. baumannii (AB), E. coli (EC), K. pneumoniae (KP), and P. aeruginosa (PA)) and categorized as either multidrug-resistant (MDR) or sensitive (SEN). Each data point represents a laboratory evolved line, and boxplots show the median, first and third quartiles, with whiskers indicating the 5th and 95th percentiles.
# Statistical analysis was performed using two-sided Dunn’s post-hoc test with Benjamini-Hochberg correction for multiple comparisons (****/ ***/ **/ * indicates p < 0.0001/ 0.001/ 0.01/ 0.05). For detailed information on antibiotic and bacterial species, see Supplementary Table 1. For mode of action groups, refer to Table 1. Source data are provided as a Source Data file.
# [4] = Klebsiella pneumoniae ATCC 10031 (KP-SEN), ancestor strain, sheet fig 2a
# [5] = Klebsiella pneumoniae ATCC 10031 (KP-SEN)
# [6] = Klebsiella pneumoniae ATCC 700603 (KP-MDR)
# [7] = P. aeruginosa ATCC BAA 3107 (PA-SEN), ancestor strain, sheet fig 2a
# [8] = PA-SEN, Pseudomonas aeruginosa ATCC BAA 3107, ancestor strain
# [9] = ATCCBAA3107, Pseudomonas aeruginosa ATCC BAA-3107 (PA-SEN)
# [10] = ATCCBAA3107, Pseudomonas aeruginosa LESB 58 (PA-MDR)
# [11] = KP-SEN (Klebsiella pneumoniae ATCC 10031), evolved line 9
# [12] = KP-SEN (Klebsiella pneumoniae ATCC 10031), evolved line 10
# [13] = KP-SEN, Klebsiella pneumoniae ATCC 10031, evolved line 7
# [14] = Klebsiella pneumoniae ATCC 10031 (KP-SEN), evolved line 1
# [15] = Klebsiella pneumoniae ATCC 10031 (KP-SEN), evolved line 4
smiles,measurement,setting,value
CN(C)[C@@H]1C(O)=C(C(N)=O)C(=O)[C@@]2(O)C(O)=C3C(=O)c4c(O)c(NC(=O)CN5CCCC5)cc(F)c4C[C@H]3C[C@@H]12 [Eravacycline],MIC of ancestor,"[1]; K. pneumoniae ATCC 10031 (KP-SEN), ancestor strain",0.0312 µg/mL
same,MIC of ancestor,[1]; [4],0.0312 µg/mL
same,MIC of ancestor,"[1]; Klebsiella pneumoniae ATCC 700603 (KP-MDR), ancestor strain",4 µg/mL
same,MIC of ancestor,"[1]; Klebsiella pneumoniae ATCC 700603 (KP-MDR), ancestor strain, sheet fig 2a",4 µg/mL
same,MIC,[1]; [5],0.0312 µg/mL
same,MIC,[1]; [6],4 µg/mL
same,MIC of ancestor,[2]; [7],4 µg/mL
same,MIC of ancestor,[2]; [8],4 µg/mL
same,MIC,[2]; [9],4 µg/mL
same,MIC,[2]; [10],32 µg/mL
same,Relative MIC,"[3]; KP-MDR (ATCC 700603), evolved line 1, MIC of evolved line / MIC of ancestor",8
same,Relative MIC,"[3]; KP-MDR (ATCC 700603), evolved line 2, MIC of evolved line / MIC of ancestor",8
same,Relative MIC,"[3]; KP-MDR (ATCC 700603), evolved line 3, MIC of evolved line / MIC of ancestor",16
same,Relative MIC,"[3]; KP-MDR (ATCC 700603), evolved line 4, MIC of evolved line / MIC of ancestor",8
same,Relative MIC,"[3]; KP-MDR (ATCC 700603), evolved line 5, MIC of evolved line / MIC of ancestor",8
same,Relative MIC,"[3]; KP-MDR (ATCC 700603), evolved line 6, MIC of evolved line / MIC of ancestor",8
same,Relative MIC,"[3]; KP-MDR (ATCC 700603), evolved line 7, MIC of evolved line / MIC of ancestor",8
same,Relative MIC,"[3]; KP-MDR (ATCC 700603), evolved line 8, MIC of evolved line / MIC of ancestor",16
same,Relative MIC,"[3]; KP-MDR (ATCC 700603), evolved line 9, MIC of evolved line / MIC of ancestor",8
same,Relative MIC,"[3]; KP-MDR (ATCC 700603), evolved line 10, MIC of evolved line / MIC of ancestor",8
same,Relative MIC (log10),"[3]; KP-MDR (Klebsiella pneumoniae ATCC 700603), evolved line 1 adapted to the named antibiotic",0.9031
same,Relative MIC (log10),"[3]; KP-MDR (Klebsiella pneumoniae ATCC 700603), evolved line 3 adapted to the named antibiotic",1.204
same,Relative MIC (log10),"[3]; KP-MDR (Klebsiella pneumoniae ATCC 700603), evolved line 4 adapted to the named antibiotic",0.9031
same,Relative MIC (log10),"[3]; KP-MDR (Klebsiella pneumoniae ATCC 700603), evolved line 8 adapted to the named antibiotic",1.204
same,Relative MIC (log10),"[3]; KP-MDR (Klebsiella pneumoniae ATCC 700603), evolved line 9 adapted to the named antibiotic",0.9031
same,Relative MIC,"[3]; KP-SEN (ATCC 10031), evolved line 1, evolved vs ancestor",512
same,Relative MIC,"[3]; KP-SEN (ATCC 10031), evolved line 3, evolved vs ancestor",256
same,Relative MIC,"[3]; KP-SEN (ATCC 10031), evolved line 4, evolved vs ancestor",64
same,Relative MIC,"[3]; KP-SEN (ATCC 10031), evolved line 7, evolved vs ancestor",64
same,Relative MIC,"[3]; KP-SEN (ATCC 10031), evolved line 9, evolved vs ancestor",256
same,Relative MIC,"[3]; KP-SEN (ATCC 10031), evolved line 10, evolved vs ancestor",512
same,Relative MIC (log10),"[3]; KP-SEN (Klebsiella pneumoniae ATCC 10031), evolved line 1",2.709 log10
same,Relative MIC (log10),"[3]; KP-SEN (Klebsiella pneumoniae ATCC 10031), evolved line 3",2.408 log10
same,Relative MIC (log10),[3]; [11],2.408 log10
same,Relative MIC (log10),[3]; [12],2.709 log10
same,Relative MIC (log10),[3]; [13],1.806 log10
same,Relative MIC,[3]; [14],512
same,Relative MIC,"[3]; Klebsiella pneumoniae ATCC 10031 (KP-SEN), evolved line 3",256
same,Relative MIC,[3]; [15],64
same,Relative MIC,"[3]; Klebsiella pneumoniae ATCC 10031 (KP-SEN), evolved line 7",64
same,Relative MIC,"[3]; Klebsiella pneumoniae ATCC 10031 (KP-SEN), evolved line 9",256
same,Relative MIC,"[3]; Klebsiella pneumoniae ATCC 10031 (KP-SEN), evolved line 10",512
same,Relative MIC,"[3]; Klebsiella pneumoniae ATCC 700603 (KP-MDR), evolved line 1",8
same,Relative MIC,"[3]; Klebsiella pneumoniae ATCC 700603 (KP-MDR), evolved line 2",8
same,Relative MIC,"[3]; Klebsiella pneumoniae ATCC 700603 (KP-MDR), evolved line 3",16
same,Relative MIC,"[3]; Klebsiella pneumoniae ATCC 700603 (KP-MDR), evolved line 4",8
same,Relative MIC,"[3]; Klebsiella pneumoniae ATCC 700603 (KP-MDR), evolved line 5",8
same,Relative MIC,"[3]; Klebsiella pneumoniae ATCC 700603 (KP-MDR), evolved line 6",8
same,Relative MIC,"[3]; Klebsiella pneumoniae ATCC 700603 (KP-MDR), evolved line 7",8
same,Relative MIC,"[3]; Klebsiella pneumoniae ATCC 700603 (KP-MDR), evolved line 8",16
same,Relative MIC,"[3]; Klebsiella pneumoniae ATCC 700603 (KP-MDR), evolved line 9",8
same,Relative MIC,"[3]; Klebsiella pneumoniae ATCC 700603 (KP-MDR), evolved line 10",8
CNC(C)C1CCC(N)C(OC2C(N)CC(N)C(OC3OCC(C)(O)C(NC)C3O)C2O)O1 (centres unmarked) [Gentamicin],MIC of ancestor,"[1]; KP-SEN, Klebsiella pneumoniae ATCC 10031, ancestor strain",0.25 µg/mL
same,MIC of ancestor,[1]; [4],0.25 µg/mL
same,MIC,[1]; [5],0.25 µg/mL
same,MIC,[1]; [6],16 µg/mL
same,MIC of ancestor,[2]; [7],1 µg/mL
same,MIC of ancestor,[2]; [8],1 µg/mL
same,MIC,[2]; [9],1 µg/mL
same,MIC,[2]; [10],> 32 µg/mL
same,Relative MIC (log10),"[3]; KP-SEN (Klebsiella pneumoniae ATCC 10031), evolved line 2 adapted to the named antibiotic",2.107
same,Relative MIC (log10),"[3]; KP-SEN (Klebsiella pneumoniae ATCC 10031), evolved line 4 adapted to the named antibiotic",1.806
same,Relative MIC (log10),"[3]; KP-SEN (Klebsiella pneumoniae ATCC 10031), evolved line 5 adapted to the named antibiotic",1.806
same,Relative MIC,"[3]; KP-SEN (Klebsiella pneumoniae ATCC 10031), evolved line 6",64
same,Relative MIC (log10),"[3]; KP-SEN (Klebsiella pneumoniae ATCC 10031), evolved line 6 adapted to the named antibiotic",1.806
same,Relative MIC,"[3]; KP-SEN (Klebsiella pneumoniae ATCC 10031), evolved line 8",128
same,Relative MIC (log10),"[3]; KP-SEN (Klebsiella pneumoniae ATCC 10031), evolved line 8 adapted to the named antibiotic",2.107
same,Relative MIC,[3]; [11],128
same,Relative MIC,[3]; [12],128
same,Relative MIC,"[3]; KP-SEN, Klebsiella pneumoniae ATCC 10031, evolved line 1 versus ancestor",64
same,Relative MIC,"[3]; KP-SEN, Klebsiella pneumoniae ATCC 10031, evolved line 2 versus ancestor",128
same,Relative MIC,"[3]; KP-SEN, Klebsiella pneumoniae ATCC 10031, evolved line 4 versus ancestor",64
same,Relative MIC,"[3]; KP-SEN, Klebsiella pneumoniae ATCC 10031, evolved line 5 versus ancestor",64
same,Relative MIC,"[3]; KP-SEN, Klebsiella pneumoniae ATCC 10031, evolved line 6 versus ancestor",64
same,Relative MIC,"[3]; KP-SEN, Klebsiella pneumoniae ATCC 10031, evolved line 7 versus ancestor",64
same,Relative MIC,"[3]; KP-SEN, Klebsiella pneumoniae ATCC 10031, evolved line 8 versus ancestor",128
same,Relative MIC,"[3]; KP-SEN, Klebsiella pneumoniae ATCC 10031, evolved line 9 versus ancestor",128
same,Relative MIC,"[3]; KP-SEN, Klebsiella pneumoniae ATCC 10031, evolved line 10 versus ancestor",128
same,Relative MIC,"[3]; KP-SEN, Klebsiella pneumoniae ATCC 10031, evolved line 5",64
same,Relative MIC,[3]; [13],64
same,Relative MIC,[3]; [14],64
same,Relative MIC,"[3]; Klebsiella pneumoniae ATCC 10031 (KP-SEN), evolved line 2",128
same,Relative MIC,[3]; [15],64
